These compounds were tested on isolated working rat heart (assay: Glucose oxidation in isolated perfused working rat heart ([U-14C]glucose, 14CO2 production)). Details: Table 2A; screening concentration 100 μM; isolated working rat heart; read-out: Glucose Oxidation (% above control).
Description: Rat hearts were cannulated for isolated working heart 60 minute aerobic perfusions as described in J Pharmacol Exp Ther. 1993; 264:135-144, the entire disclosure of which is incorporated herein by reference.
Male Sprague-Dawley rats (0.3-0.35 kg) were anesthetized with pentobarbital sodium (60 mg/kg IP) and hearts were quickly excised, the aorta was cannulated and a retrograde perfusion at 37° C. was initiated at a hydrostatic pressure of 60 mm Hg. Hearts were trimmed of excess tissue, and the pulmonary artery and the opening to the left atrium were then cannulated. After 15 min of Langendorff perfusion, hearts were switched to the working mode by clamping the aortic inflow line from the Langendorff reservoir and opening the left atrial inflow line. The perfusate was delivered from an oxygenator into the left atrium at a constant preload pressure of 11 mm Hg. Perfusate was ejected from spontaneously beating hearts into a compliance chamber (containing 1 ml of air) and into the aortic outflow line. The afterload was set at a hydrostatic pressure of 80 mm Hg. All working hearts were perfused with Krebs'-Henseleit solution containing calcium 2.5 mmol/L, glucose 5.5 mmol/L, 3% bovine serum albumin (fatty acid free, initial fractionation by heat shock, Sigma), and with 1.2 mmol/L palmitate. Palmitate was bound to the albumin as described in J Bio Chem. 1992; 267:3825-3831, the entire disclosure of which is incorporated herein by reference.
The perfusate was recirculated, and pH was adjusted to 7.4 by bubbling with a mixture containing 95% O2 and 5% CO2.
Spontaneously beating hearts were used in all perfusions. Heart rate and aortic pressure were measured with a Biopac Systems Inc. blood pressure transducer connected to the aortic outflow line. Cardiac output and aortic flow were measured with Transonic T206 ultrasonic flow probes in the preload and afterload lines, respectively. Coronary flow was calculated as the difference between cardiac output and aortic flow. Cardiac work was calculated as the product of systolic pressure and cardiac output.
Measurement of Glucose Oxidation: Glucose oxidation was measured simultaneously by perfusing hearts with [U-^14C] glucose according to the procedures discussed in Saddik M, et al., J Bio Chem. 1992; 267:3825-3831. The entire disclosure of this reference is incorporated herein by reference. The total myocardial ^14CO2 production was determined at 10-min intervals from the 60-min aerobic period. Glucose oxidation rates were determined by quantitative measurement of ^14CO2 production as described in Barbour RL, et al., Biochemistry. 1984; […]. The entire disclosure of this reference is incorporated herein by reference. ^14CO2 production for the control group were compared with the ^14CO2 production for the group treated with cyclopropanecarboxylic acid, 2-[2-(2-methoxy-ethoxy)-ethoxy]-ethyl ester. Results are shown on FIG. 1 and TABLE 2A.
The procedure of Example A for was followed except that cyclobutanecarboxylic acid, 2-[2-(2-methoxy-ethoxy)-ethoxy]-ethyl ester in 1 μM, 10 μM, 100 μM and 1000 μM amounts was added to the buffer in place of the cyclopropanecarboxylic acid, 2-[2-(2-methoxy-ethoxy)-ethoxy]-ethyl ester. The results are illustrated in FIG. 2 and TABLE 2A.
The procedure of Example A was followed except that cyclopropanecarboxylic acid, 2-isopropoxy-ethyl ester in 1 μM, 10 μM, 100 μM and 1000 μM amounts was added to the buffer in place of the cyclopropanecarboxylic acid, 2-[2-(2-methoxy-ethoxy)-ethoxy]-ethyl ester. The results are illustrated in FIG. 3 and TABLE 2A.
The procedure of Example A was followed except that various cyclobutanecarboxylic acid derivatives, cyclopropanecarboxylic acid derivatives and cyclobutanecarboxylic acid in the amounts of 100 μM or 1000 μM was added to the buffer in place of the cyclopropanecarboxylic acid, 2-[2-(2-methoxy-ethoxy)-ethoxy]-ethyl ester.

Compound | activation at 100 µM [%]
CC(C)OCCOC(=O)[C@@H]1C[C@H]1c1ccccc1 (racemic) [Compound 25MM078, trans-2-Phenyl-cyclopropanecarboxylic acid 2-isopropoxy-ethyl ester] | 200
COCCOCCOCCOC(=O)C1CC1 [Compound 1MM054, Cyclopropanecarboxylic acid 2-[2-(2-methoxy-ethoxy)-ethoxy]-ethyl ester] | 102
COCCOCCOCCOC(=O)C1CCC1 [Compound 3MM056, Cyclobutanecarboxylic Acid, 2-[2-(2-methoxy-ethoxy)-ethoxy]-ethyl ester] | 54
O=C(OCCOCCOCc1ccccc1)C1CC1 [Compound 4MM057, Cyclopropanecarboxylic acid 2-(2-benzyloxy-ethoxy)-ethyl ester] | 104
O=C(OCCOCCOCc1ccccc1)C1CCC1 [Compound 6MM059, Cyclobutanecarboxylic acid 2-(2-benzyloxy-ethoxy)-ethyl ester] | 68
CCCCOCCOCCOC(=O)C1CCC1 [Compound 7MM060, Cyclobutanecarboxylic acid, 2-(2-butoxy-ethoxy)-ethyl ester] | 65
CN(C)CCOCCOC(=O)C1CC1 [Compound 9MM062, Cyclopropanecarboxylic acid 2-(2-dimethylamino-ethoxy)-ethyl ester] | 77
CN(C)CCOCCOC(=O)C1CCC1 [Compound 10MM063, Cyclobutanecarboxylic acid 2-(2-dimethylamino-ethoxy)-ethyl ester] | 41
CCCCCCOCCOCCOC(=O)C1CC1 [Compound 11MM064, Cyclopropanecarboxylic acid 2-(2-hexyloxy-ethoxy)-ethyl ester] | 83
CCCCCCOCCOCCOC(=O)C1CCC1 [Compound 12MM065, Cyclobutanecarboxylic acid 2-(2-hexyloxy-ethoxy)-ethyl ester] | 0
COCCOCCOC(=O)C1CC1 [Compound 13MM066, Cyclopropanecarboxylic acid 2-(2-methoxy-ethoxy)-ethyl ester] | 20
COCCOCCOC(=O)C1CCC1 [Compound 14MM067, Cyclobutanecarboxylic acid 2-(2-methoxy-ethoxy)-ethyl ester] | 50
CCOCCOC(=O)C1CC1 [Compound 15MM068, Cyclopropanecarboxylic acid 2-ethoxy-ethyl ester] | 416
CCOCCOC(=O)C1CCC1 [Compound 16MM069, Cyclobutanecarboxylic acid 2-ethoxy-ethyl ester] | 162
CC(C)OCCOC(=O)C1CC1 [Compound 17MM070, Cyclopropanecarboxylic acid 2-isopropoxy-ethyl ester] | 208
CC(C)OCCOC(=O)C1CCC1 [Compound 18MM071, Cyclobutanecarboxylic acid 2-isopropoxy-ethyl ester] | 97
O=C(OCCOCCOC(=O)C1CC1)C1CC1 [Compound 19MM072, Cyclopropanecarboxylic acid, 2-(2-cyclopropanecarbonyloxy-ethoxy)-ethyl ester] | 97
O=C(OCCOCCOC(=O)C1CCC1)C1CCC1 [Compound 20MM073, Cyclobutanecarboxylic acid, 2-(2-cyclobutanecarbonyloxy-ethoxy)-ethyl ester] | 243
O=C(OCCOCCOCCOC(=O)C1CC1)C1CC1 [Compound 21MM074, Cyclopropanecarboxylic acid, 2-[2-(2-cyclopropanecarbonyloxy-ethoxy)-ethoxy]-ethyl ester] | 228

Same assay, conditions: Table 2A; screening concentration 1000 μM; isolated working rat heart; read-out: Glucose Oxidation (% above control)

Compound | activation at 1000 µM [%]
O=C(O)CNC(=O)C1CCC1 [Compound 2MM055, (Cyclobutanecarbonyl-amino)-acetic acid] | 58
CC(NC(=O)C1CC1)C(=O)O (stereo not drawn) [Compound 5MM058, 2-(Cyclopropanecarbonyl-amino)-propionic acid] | 40

From patent US7524885B2, “Compounds that stimulate glucose utilization and methods of use” (The Governors of the University of Alberta, priority 2002, dated 2009)
